From paper PMC12628652, “A Validated UPLC‐MS/MS Method for Monitoring Temozolomide and Perillyl Alcohol Metabolites in Biological Matrices: Insights From a Preclinical Pharmacokinetic Study” (Biomedical Chromatography, 2025)
Entries after “also recorded” stand apart in the source; their conditions may differ.

Key:
[1] = Biodistribution study in rats 4 h after single oral administration of POH and TMZ; type: in vivo, Male Wistar rats; details: n = 4; for tissue concentrations (brain, liver, spleen, kidney, lung), in words: rats
Method: Following blood collection, animals were anesthetized and euthanized, and their organs (kidneys, liver, spleen, brain, and lungs) were promptly excised and stored at −20°C. Tissue samples were homogenized in PBS (pH 7.4) at a ratio of 1 part tissue to 5 parts buffer (w/v), using a mechanical homogenizer equipped with a 5 mm probe.
For chromatographic analysis, 200 μL of each tissue homogenate was mixed with 50 μL of IS solution (final IS concentration: 100 ng/mL) and 750 μL of ACN to reach a final volume of 1 mL. The mixture was centrifuged at 3500 rpm for 10 min at 20°C. The supernatant was collected, filtered through a 0.22 μm membrane, and transferred to injection vials for UPLC‐MS/MS analysis. When necessary, samples were diluted appropriately to ensure analyte concentrations fell within the validated linear range.
(§1) The pharmacokinetic and biodistribution study was conducted in accordance with ethical guidelines and approved by the Animal Ethics Committee of the Universidade Estadual do Centro‐Oeste, Brazil (Protocol No. 026/2023). Male Wistar rats (n = 6 for pharmacokinetics; n = 4 for biodistribution), weighing approximately 200 g, were housed under controlled environmental conditions (12 h light/dark cycle, 35% relative humidity, and temperature of 23°C ± 2°C). Animals had free access to food and water, which were withheld 10 h prior to drug administration and resumed 2 h afterward.
(§2) Each animal received a single oral dose of POH (47 mg/kg) and TMZ (2 mg/kg). For pharmacokinetic profiling, blood samples were collected via the tail vein into heparinized tubes at predefined time points: 0.5, 1, 2, 4, 8, 12, and 24 h post‐administration. For biodistribution analysis, a separate cohort of rats (n = 4) was sacrificed 4 h after dosing. Organs, including the brain, liver, lungs, kidneys, and spleen, were collected, homogenized, and stored at −20°C for subsequent quantification, as detailed in Section 3.2.

[2] = Pharmacokinetic study in rats after single oral administration of POH and TMZ (plasma, UPLC-MS/MS); type: in vivo, Male Wistar rats; details: rat plasma; for Cmax / Tmax / half-life / k el / AUC(0-t): male, Wistar; for AUC(0-t): read-out: AUC0–24h
Method: Approximately 200 μL of whole blood was collected from the tail vein of each rat. Samples were centrifuged at 3500 rpm for 10 min at 20°C to separate the plasma. Plasma samples were then subjected to liquid–liquid extraction with ACN. The mixture was centrifuged again at 3500 rpm for 10 min at 4°C. The resulting supernatant was filtered through hydrophobic 0.22 μm membranes and transferred to autosampler vials. A 2 μL aliquot of each sample was injected into the UPLC‐MS/MS system for analysis.
Thawed plasma samples (50 μL) were also prepared by protein precipitation. Each sample was mixed with 50 μL of IS solution and 900 μL of ACN, followed by centrifugation at 3500 rpm for 10 min at 20°C. The supernatants were filtered and analyzed as described. All dilutions were performed based on analyte concentration to ensure compliance with the method's validated dynamic range.
as §1, §2
Pharmacokinetic parameters were calculated using non‐compartmental analysis with the PKSolver plugin for Microsoft Excel. The following parameters were determined: area under the plasma concentration–time curve from 0 to 24 h (AUC0–24h), maximum plasma concentration (Cmax), time to reach Cmax (tmax), elimination half‐life (t1/2), volume of distribution (VD), and total clearance (CL).

[3] = rat brain, 4 h after single oral dose POH 47 mg/kg and TMZ 2 mg/kg
[4] = 4 h after single oral dose POH 47 mg/kg and TMZ 2 mg/kg
[5] = single oral dose POH 47 mg/kg and TMZ 2 mg/kg, n = 6

concentration at 4 h ([1]; male, Wistar, rat brain, 4 h after single oral dose TMZ 2 mg/kg and POH 47 mg/kg) [ng/mL] | brain concentration / CNS penetration, in words [1, 3] | tissue concentrations (brain, liver, spleen, kidney, lung), in words [1, 4] | Cmax [2, 5] [ng/mL] | Tmax [2, 5] [h] | half-life [2, 5] [h] | k el [2, 5] [s⁻¹] | AUC(0-t) [2, 5] [ng·h/mL] | CL [2, 5] [mL/min/kg] | Vd [2, 5] [L/kg] | hepatic accumulation, in words ([1]; rat liver, 4 h after single oral dose POH 47 mg/kg and TMZ 2 mg/kg) | Tmax ([2]; single oral dose POH 47 mg/kg) [h] | Structure (SMILES)
 | lower brain concentrations | lowest tissue concentrations |  | 1 | 18.5 | 1.03e-05 | 2190 | 3.83 | 6.09 |  |  | NC(=O)c1[nH]cnc1N [AIC, 5‐aminoimidazole‐4‐carboxamide]

Structure (SMILES) | concentration at 4 h ([1]; male, Wistar, rat brain, 4 h after single oral dose TMZ 2 mg/kg and POH 47 mg/kg) [ng/mL] | brain concentration / CNS penetration, in words [1, 3] | tissue concentrations (brain, liver, spleen, kidney, lung), in words [1, 4] | Cmax [2, 5] [ng/mL] | Tmax [2, 5] [h] | half-life [2, 5] [h] | k el [2, 5] [s⁻¹] | AUC(0-t) [2, 5] [ng·h/mL] | CL [2, 5] [mL/min/kg] | Vd [2, 5] [L/kg] | hepatic accumulation, in words ([1]; rat liver, 4 h after single oral dose POH 47 mg/kg and TMZ 2 mg/kg) | Tmax ([2]; single oral dose POH 47 mg/kg) [h]
Cn1nnc2c(C(N)=O)ncn2c1=O [TMZ, Temozolomide] | ~1000 | highest concentration in the brain | highest tissue concentrations in all organs | 1450 | 1 | 18.4 | 1.03e-05 | 8170 | 1.5 | 1.75 |  | 
C=C(C)[C@@H]1CC=C(C(=O)O)CC1 [PA, perillic acid] |  | limited brain penetration; also recorded: lower brain concentrations | mainly distributed to liver and kidneys | 704 | 0.5 | 19 | 1e-05 | 2200 | 3.83 | 6.26 | marked hepatic accumulation | ≤ 0.5
